This is an account of results in US5126336A, “Antibiotic C-3 catechol-substituted cephalosporin compounds, compositions and method of use thereof” (Bristol-Myers Squibb Company, priority 1990, dated 1992).

Values after ≈ are worked out from the molar mass of the structure shown.

Holding throughout (format): cell-based
Assay [1] deals with B. subtilis PCI 219. Nature of the assay: MIC, agar dilution. The following applies: Bacillus subtilis, PCI219, Mueller-Hinton agar pH 7.2, 32° C., 18 hr, 10^6 cells/ml. The method, then: (§1) Minimum inhibitory concentrations (MICs) of the present series of cephalosporins were determined against 32 strains of test organisms by two-fold serial agar dilution method in Mueller-Hinton agar. Geometric means of MICs were calculated against six groups of the test organisms which are classified as follows and summarized in Table 1.
(§2) Medium; MuellerHinton agar (pH = 7.2)
(§3) Incubation temperature: 32° C., 18 hr
(§4) Inoculum size; 10^6 cells/ml
Background: In agar dilution the substance is mixed into plates at graded concentrations.

The test system of assay [2] is C. freundii GN 7391. Nature of the assay: MIC, agar dilution. To be noted: Citrobacter freundii, GN7391, Mueller-Hinton agar pH 7.2, 32° C., 18 hr, 10^6 cells/ml. As for the experimental part: as §1, §2, §3, §4
Assay [3] deals with C. terrigena IFO 12685. Briefly: MIC, agar dilution. To be noted: Mueller-Hinton agar pH 7.2, 32° C., 18 hr, 10^6 cells/ml. As for the experimental part: as §1, §2, §3, §4
Assay [4] concerns E. cloacae IPM-12. Nature of the assay: MIC, agar dilution. To be noted: Enterobacter cloacae, IPM12, Mueller-Hinton agar pH 7.2, 32° C., 18 hr, 10^6 cells/ml. As for the experimental part:
as §1, §2, §3, §4

The test system of assay [5] is E. coli 255. Briefly: MIC, agar dilution. The following applies: Escherichia coli, Mueller-Hinton agar pH 7.2, 32° C., 18 hr, 10^6 cells/ml. As for the experimental part:
as §1, §2, §3, §4

Assay [6] relates to E. faecalis A9808. Briefly: MIC, agar dilution. To be noted: Enterococcus faecalis, Mueller-Hinton agar pH 7.2, 32° C., 18 hr, 10^6 cells/ml. As for the experimental part:
as §1, §2, §3, §4

Assay [7] deals with E. faecium A24817. Briefly: MIC, agar dilution. To be noted: Enterococcus faecium, Mueller-Hinton agar pH 7.2, 32° C., 18 hr, 10^6 cells/ml. The method, then:
as §1, §2, §3, §4

The subject of assay [8] is K. pneumoniae PCI 602. Briefly: MIC, agar dilution. The following applies: Klebsiella pneumoniae, PCI602, Mueller-Hinton agar pH 7.2, 32° C., 18 hr, 10^6 cells/ml. The method, then:
as §1, §2, §3, §4

For assay [9], the system named is M. luteus 1001. Nature of the assay: MIC, agar dilution. To be noted: Micrococcus luteus, Mueller-Hinton agar pH 7.2, 32° C., 18 hr, 10^6 cells/ml. As for the experimental part:
as §1, §2, §3, §4

Assay [10] concerns M. morgani 1510/9. Nature of the assay: MIC, agar dilution. To be noted: Mueller-Hinton agar pH 7.2, 32° C., 18 hr, 10^6 cells/ml. The method, then:
as §1, §2, §3, §4

Assay [11] has as its system M. morgani 1510. Briefly: MIC, agar dilution. To be noted: Mueller-Hinton agar pH 7.2, 32° C., 18 hr, 10^6 cells/ml. As for the experimental part:
as §1, §2, §3, §4

Assay [12] relates to P. aeruginosa A20599. Briefly: MIC, agar dilution. The following applies: Pseudomonas aeruginosa, Mueller-Hinton agar pH 7.2, 32° C., 18 hr, 10^6 cells/ml. As for the experimental part:
as §1, §2, §3, §4

Assay [13] concerns P. aeruginosa IPM-8. Briefly: MIC, agar dilution. To be noted: Pseudomonas aeruginosa, IPM8, Mueller-Hinton agar pH 7.2, 32° C., 18 hr, 10^6 cells/ml. As for the experimental part: as §1, §2, §3, §4
The test system of assay [14] is P. aeruginosa IPM-9. Briefly: MIC, agar dilution. To be noted: Pseudomonas aeruginosa, IPM9, Mueller-Hinton agar pH 7.2, 32° C., 18 hr, 10^6 cells/ml. As for the experimental part: as §1, §2, §3, §4
The test system of assay [15] is P. aeruginosa KKA 19. Nature of the assay: MIC, agar dilution. To be noted: Pseudomonas aeruginosa, KKA19, Mueller-Hinton agar pH 7.2, 32° C., 18 hr, 10^6 cells/ml. The method, then:
as §1, §2, §3, §4

Assay [16] relates to P. cepacia A21213. Nature of the assay: MIC, agar dilution. The following applies: Burkholderia cepacia, Mueller-Hinton agar pH 7.2, 32° C., 18 hr, 10^6 cells/ml. The method, then:
as §1, §2, §3, §4

In assay [17] the test system is P. cepacia No. 651. Nature of the assay: MIC, agar dilution. The following applies: Burkholderia cepacia, Mueller-Hinton agar pH 7.2, 32° C., 18 hr, 10^6 cells/ml. The method, then:
as §1, §2, §3, §4

Assay [18] relates to P. mirabilis IFO-2849. Briefly: MIC, agar dilution. The following applies: Proteus mirabilis, IFO2849, Mueller-Hinton agar pH 7.2, 32° C., 18 hr, 10^6 cells/ml. The method, then: as §1, §2, §3, §4
The test system of assay [19] is P. rettgeri IPM-14. Briefly: MIC, agar dilution. The following applies: Providencia rettgeri, IPM14, Mueller-Hinton agar pH 7.2, 32° C., 18 hr, 10^6 cells/ml. As for the experimental part: as §1, §2, §3, §4
The subject of assay [20] is P. vulgaris IPM-13. Briefly: MIC, agar dilution. The following applies: Proteus vulgaris, IPM13, Mueller-Hinton agar pH 7.2, 32° C., 18 hr, 10^6 cells/ml. As for the experimental part: as §1, §2, §3, §4
The subject of assay [21] is S. aureus 209P. Briefly: MIC, agar dilution. The following applies: Staphylococcus aureus; S. aureus 209P; Mueller-Hinton agar pH 7.2; 32° C., 18 hr; 10^6 cells/ml; read-out: MIC. The method, then:
as §1, §2, §3, §4

Assay [22] deals with S. aureus 4-1015 (MRSA). Briefly: MIC, agar dilution. To be noted: Staphylococcus aureus, Mueller-Hinton agar pH 7.2, 32° C., 18 hr, 10^6 cells/ml. As for the experimental part: as §1, §2, §3, §4
For assay [23], the system named is S. aureus IPM-24 (MRSA). Nature of the assay: MIC, agar dilution. To be noted: Staphylococcus aureus, Mueller-Hinton agar pH 7.2, 32° C., 18 hr, 10^6 cells/ml. The method, then:
as §1, §2, §3, §4

The subject of assay [24] is S. epidermidis 11-1230. Briefly: MIC, agar dilution. The following applies: Staphylococcus epidermidis, 111230, Mueller-Hinton agar pH 7.2, 32° C., 18 hr, 10^6 cells/ml. The method, then: as §1, §2, §3, §4
The test system of assay [25] is S. marcescens IPM-15. Briefly: MIC, agar dilution. The following applies: Serratia marcescens, IPM15, Mueller-Hinton agar pH 7.2, 32° C., 18 hr, 10^6 cells/ml. As for the experimental part:
as §1, §2, §3, §4

In assay [26] the test system is S. marcescens IPM-16. Briefly: MIC, agar dilution. To be noted: Serratia marcescens, IPM16, Mueller-Hinton agar pH 7.2, 32° C., 18 hr, 10^6 cells/ml. The method, then:
as §1, §2, §3, §4

The test system of assay [27] is X. maltophilia GN 12873. Nature of the assay: MIC, agar dilution. The following applies: Stenotrophomonas maltophilia, GN12873, Mueller-Hinton agar pH 7.2, 32° C., 18 hr, 10^6 cells/ml. As for the experimental part: as §1, §2, §3, §4
The test system of assay [28] is X. maltophilia No. 661. Nature of the assay: MIC, agar dilution. To be noted: Stenotrophomonas maltophilia, Mueller-Hinton agar pH 7.2, 32° C., 18 hr, 10^6 cells/ml. The method, then: as §1, §2, §3, §4
Assay [29] has as its system E. coli Juhl A15119. Nature of the assay: MIC, agar dilution. To be noted: Escherichia coli, JUHLA15119; E. coli Juhl A15119; Mueller-Hinton agar pH 7.2; 32° C., 18 hr; 10^6 cells/ml; read-out: MIC. As for the experimental part: as §1
(§5) In vivo antibacterial activity was determined against three bacterial infections (S. aureus Smith, E. coli Juhl and P. aeruginosa A9843A) by intramuscular administration to mice just after the bacterial challenge. PD50 values are summarized in Table 3 in comparsion with the MIC values against the corresponding organisms.
as §2, §3, §4

The subject of assay [30] is P. aeruginosa A9843A. Nature of the assay: MIC, agar dilution. To be noted: Pseudomonas aeruginosa, A9843A, 18 h, pH 7.2. As for the experimental part:
as §1, §5, §2, §3, §4

The subject of assay [31] is S. aureus Smith. Briefly: MIC, agar dilution. The following applies: Staphylococcus aureus; S. aureus Smith; Mueller-Hinton agar pH 7.2; 32° C., 18 hr; 10^6 cells/ml; read-out: MIC. As for the experimental part:
as §1, §5, §2, §3, §4

The test system of assay [32] is Gp-Ia: Penicillin(PC)-sensitive S. aureus (5 strains). Briefly: MIC, two-fold serial agar dilution, Gp-Ia. The following applies: Staphylococcus aureus, Mueller-Hinton agar, read-out: Geometric mean of MIC. The method, then:
as §1
Gp-Ia Penicillin(PC)-sensitive S. aureus (5 strains).

Assay [33] concerns Gp-Ib: Penicillin(PC)-resistant S. aureus (5). Briefly: MIC, two-fold serial agar dilution, Gp-Ib. To be noted: Staphylococcus aureus, 5 strains, Mueller-Hinton agar, read-out: Geometric mean of MIC. As for the experimental part:
as §1
Gp-Ib Penicillin(PC)-resistant S. aureus (5).

In assay [34] the test system is Gn-Ia: Cephalothin(CET)-sensitive E. coli (2), Kl. pneumoniae (1) and Pr. mirabilis (2). Nature of the assay: MIC, two-fold serial agar dilution, Gn-Ia. To be noted: 5 strains, Mueller-Hinton agar, read-out: Geometric mean of MIC. The method, then: as §1
Gn-Ia Cephalothin(CET)-sensitive E. coli (2), Kl.
pneumoniae (1) and Pr. mirabilis (2).

Assay [35] deals with Gn-Ib: Cephalothin(CET)-resistant E. coli (3) and Kl. pneumoniae (2). Briefly: MIC, two-fold serial agar dilution, Gn-Ib. To be noted: Escherichia coli, read-out: Geometric mean of MIC, Gn-Ib, 5 strains; Mueller-Hinton agar. As for the experimental part: as §1
Gn-Ib Cephalothin(CET)-resistant E. coli (3) and Kl.

Assay [36] deals with Gn-II: M.morganii (1), Ent. cloacae (2) and Ser. marcescens (2). Briefly: MIC, two-fold serial agar dilution, Gn-II. The following applies: Gn-II, 5 strains; Mueller-Hinton agar; read-out: Geometric mean of MIC. The method, then:
as §1
Gn-II M.morganii (1), Ent. cloacae (2) and Ser.

In assay [37] the test system is Gn-III: Ps. aeruginosa (7). Briefly: MIC, two-fold serial agar dilution, Gn-III. To be noted: Pseudomonas aeruginosa, Gn-III, 7 strains; Mueller-Hinton agar; read-out: Geometric mean of MIC. As for the experimental part: as §1
Gn-III Ps. aeruginosa (7).

As to `Nc1nc(/C(=N/O)C(=O)NC2C(=O)N3C(C(=O)[O-])=C(/C=C/C[n+]4cc5cc(O)c(O)cc5cn4)CS[C@H]23)cs1` (stereo partly shown) [Ik, 7-[(Z)-2-(2-Aminothiazol-4-yl)-2-hydroxyimino-acetamido]-3-[(E)-3-(6,7-dihydroxyphthalazin-2-io)-1-propen--1-yl]-3-cephem-4-carboxylate], the MIC (as a rule, the smallest concentration in the dilution series that meets the test's criterion for growth inhibition) in [1] is 0.4 µg/mL (≈ 0.702 µM); in assay [2], above 100 µg/mL; in assay [3] it was 0.8 µg/mL (≈ 1.4 µM); in assay [4], above 100 µg/mL; in assay [5], 0.2 µg/mL (≈ 0.351 µM); in [6] it was 6.3 µg/mL (≈ 11.1 µM). Besides, the minimum inhibitory concentration (MIC) was 50 µg/mL (≈ 87.8 µM) in assay [7]; 0.05 µg/mL (≈ 0.0878 µM) in assay [8]; 0.4 µg/mL (≈ 0.702 µM) in assay [9]; 0.1 µg/mL (≈ 0.176 µM) in [10]; 6.3 µg/mL (≈ 11.1 µM) in [11]; above 100 µg/mL in assay [12]. Moreover, the MIC in [13] was above 100 µg/mL; in assay [14], above 100 µg/mL; in assay [15], above 100 µg/mL; in assay [16], above 100 µg/mL; in assay [17], 100 µg/mL (≈ 176 µM); in [18] it was 0.2 µg/mL (≈ 0.351 µM). Also, the MIC is 1.6 µg/mL (≈ 2.81 µM) in assay [19]; above 100 µg/mL in assay [20]; 0.8 µg/mL (≈ 1.4 µM) in assay [21]; 3.1 µg/mL (≈ 5.44 µM) in [22]; 12.5 µg/mL (≈ 21.9 µM) in assay [23]; 1.6 µg/mL (≈ 2.81 µM) in [24]. The minimal inhibitory concentration (MIC) in [25] is above 100 µg/mL; in [26], above 100 µg/mL; in [27], above 100 µg/mL; in assay [28], above 100 µg/mL; in assay [29], 0.4 µg/mL (≈ 0.702 µM); in [30], above 100 µg/mL. For the same compound, in assay [31], the MIC came out at 0.8 µg/mL (≈ 1.4 µM).

Turning to `CC(C)(O/N=C(\C(=O)NC1C(=O)N2C(C(=O)[O-])=C(/C=C/C[N+](C)(C)CCc3ccc(O)c(O)c3)CS[C@H]12)c1csc(N)n1)C(=O)O` (stereo partly shown) [Iq, 7-[(Z)-2-(2-Aminothiazol-4-yl)-2-(1-carboxy-1-methylethoxy-imino)acetamido]-3-[(E)-3-(3,4-dihydroxyphenethyldimethyl-ammonio)-1-propen-1-yl]-3-cephem-4-carboxylate], the MIC in assay [32] is 13 µg/mL (≈ 19.3 µM); in [33], 25 µg/mL (≈ 37.1 µM); in assay [34], 0.17 µg/mL (≈ 0.252 µM); in assay [35], 0.13 µg/mL (≈ 0.193 µM); in [36], 0.8 µg/mL (≈ 1.19 µM); in assay [37], 0.59 µg/mL (≈ 0.874 µM).
